Results: ChEMBL document CHEMBL1157980, “Guaianolides as immunomodulators. Synthesis and biological activities of dehydrocostus lactone, mokko lactone, eremanthin, and their derivatives” (J Nat Prod, 1999)

Legend:
A549 = assay: Inhibition of IL-1-beta-induced ICAM1 expression in human A549 cells; format: functional, cell-based
[1] = Inhibition of killing activity of CD8+ specific mouse CTL-OE4 cells; format: functional, cell-based

IC50 (A549)	Compound	IC50 [1]
7 µM	C=C1CC[C@@]23O[C@]2(C)CC[C@H]2C(=C)C(=O)O[C@@H]2[C@@H]13	7 µM
142 µM	C=C1CC[C@H]2C(C)=CCC3=C(C)C(=O)O[C@@H]3[C@@H]12	> 100 µM
253 µM	C=C1CC[C@@]23O[C@]2(C)CC[C@@H]2[C@H](OC(=O)[C@H]2C)[C@@H]13	> 1000 µM
136 µM	C=C1CC[C@]23O[C@@]2(C)CCC2=C(C)C(=O)O[C@@H]2[C@@H]13	> 1000 µM
6 µM	C=C1CC[C@@H]2[C@H]1[C@H]1OC(=O)C(=C)[C@@H]1C[C@H]1O[C@@]21C	8 µM
–	C=C1CC[C@@H]2[C@H](OC(=O)[C@H]2C)[C@H]2C(C)=CC[C@@H]12	> 100 µM
10 µM	C=C1CC[C@]23O[C@@]2(C)CC[C@H]2C(=C)C(=O)O[C@@H]2[C@@H]13	7 µM
442 µM	C=C1CC[C@H]2C(=C)CCC3=C(C)C(=O)O[C@@H]3[C@@H]12	50 µM
504 µM	C=C1CC[C@]23O[C@@]2(C)CC[C@@H]2[C@H](OC(=O)[C@H]2C)[C@@H]13	597 µM
117 µM	C=C1CC[C@@H]2[C@H]1[C@H]1OC(=O)[C@@H](C)[C@@H]1C[C@H]1O[C@@]21C	422 µM
8 µM	C=C1CCC2=C(C)CC[C@H]3C(=C)C(=O)O[C@@H]3[C@@H]12	15 µM
10 µM	C=C1CC[C@H]2C(=C)CC[C@H]3C(=C)C(=O)O[C@@H]3[C@@H]12 [DEHYDROCOSTUSLACTONE]	14 µM
46 µM	C=C1CC[C@H]2C(C)=CC[C@H]3C(=C)C(=O)O[C@@H]3[C@@H]12 [EREMANTHIN]	11 µM
–	C=C1C(=O)O[C@@H]2[C@H]3C(C)=CC[C@H]3C(=C)CC[C@@H]12 [ISODEHYDROCOSTUS LACTONE]	16 µM
251 µM	C=C1CC[C@H]2C(=C)CC[C@@H]3[C@H](OC(=O)[C@H]3C)[C@@H]12 [MOKKO LACTONE]	> 1000 µM
